# Source: patent US11425909B2, “Use of tetrazolinones for combating resistant phytopathogenic fungi on fruits” (priority 2016, dated 2022)
# System: Uncinula necator (UNCINE), Qol-sensitive isolate
# Experiment: Activity against grape powdery mildew, protective glasshouse test, Qol-sensitive isolate
# Format: in vivo
# Conditions: % infected leaf area on grape plants, inoculated 2 days after treatment, assessed 19 days after inoculation
# Procedure: Activity against grape powdery mildew caused by Uncinula necator (UNCINE)
# The active compounds were formulated separately. Both compounds were applied on plants at the same concentrations of 100, 25 and 5 ppm. The spray broths were prepared as aqueous solutions based on a 6% EC of compound I according to the present invention and a 5% Aceton/water solution of compound I-213 from prior art (WO2013/092224).
# The spray solutions were applied until runoff using an experimental glasshouse spray machine at a water volume equivalent to 1.000 L/ha. Treated plants were placed (together with untreated plants as a reference for infection success) in a glasshouse chamber at approx. 18° C. and 50% rH for two days. Two days after treatment, the plants were split into two groups. They were artificially inoculated using an aqueous conidia suspension of 0.1 to 0.5 E05 conidia/ml. One part was inoculated using a Qol-sensitive isolate, the other part using a Qol-resistant isolate carrying the target mutation G143A. After the artificial inoculation, the plants were placed in a glasshouse chamber at 21° C. and 55% rH for 19 days. The assessment of the infection was done 19 days after the inoculation and reported as % infected leaf area on two leaves which were fully covered by the spray application.
smiles,measurement,setting,value
"Cc1cccc(-n2nnn(C)c2=O)c1COc1ccn(-c2ccc(Cl)cc2)n1 [compound I, 1-[2-[[1-(4-chlorophenyl)pyrazol-3-yl]oxymethyl]-3-methyl-phenyl]-4-methyl-tetrazol-5-one]",Infection (%) Sens. Uncinula necator,5 ppm spray,0.3%
same,Infection (%) Sens. Uncinula necator,25 ppm spray,0.4%
same,Infection (%) Sens. Uncinula necator,100 ppm spray,0.0%
